Reference: publication PMC7932555, “A diffusible signal factor of the intestine dictates Salmonella invasion through its direct control of the virulence activator HilD” (PLoS Pathogens, 2021)
Where a chain is given by its changes, count along the chain named. Values joined by “and” are separate entries in the source; they are usually repeats but may differ in a detail not shown here. Equal values may be shown once.

Key:
sipB::lacZY = sipB::lacZY reporter β-galactosidase assay in strains expressing wild type or mutant HilD; type: cell-based; details: 20 μM fatty acid (mix: 20 μM of each)
Text: To test the effect of mutations in hilD, we initially constructed a background Salmonella strain without chromosomal hilC, rtsA and hilD and fused sipB to lacZY to assess SPI-1 expression. hilD with a C-terminal 3XFLAG tag was cloned into pWSK29 under control of the tetRA promoter for tetracycline-inducible expression. This plasmid was subjected to site-directed mutagenesis at specific nucleotides to change selected amino acids to alanine, using the Agilent QuikChange II Site-Directed Mutagenesis kit following their protocol. Mutations were confirmed by DNA sequencing.
Salmonella strains were inoculated into LB buffered with 100 mM MOPS [3-(N-morpholino) propanesulphonic acid] pH 6.7, with necessary antibiotics, and fatty acids or control solvents to be tested. Cultures were incubated at 37° C without aeration overnight, and assays were performed using an established protocol.

HilD^Q290A = target: T1, HilD^Q290A (Salmonella typhimurium, UniProt P0CL08, Q290A); test: ELISA binding of fatty acid to HilD Q290A
T1 construct: made in house; host or cells: E. coli BL21 (DE3)
T1 sequence (P0CL08 1-309 Q290A): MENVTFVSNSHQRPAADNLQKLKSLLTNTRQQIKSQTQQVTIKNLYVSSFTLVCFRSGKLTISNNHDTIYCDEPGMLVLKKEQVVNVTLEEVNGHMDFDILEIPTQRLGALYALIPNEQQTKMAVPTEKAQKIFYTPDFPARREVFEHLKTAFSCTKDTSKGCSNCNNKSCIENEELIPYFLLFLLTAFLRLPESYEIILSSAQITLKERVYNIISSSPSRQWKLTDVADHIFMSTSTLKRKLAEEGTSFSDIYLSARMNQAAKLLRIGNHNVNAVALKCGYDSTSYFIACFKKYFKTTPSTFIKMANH
Description: (§1) hilD or its mutated sequences were amplified and cloned into pET15b(+) under an N-terminal 6xHis tag. The constructs were transformed into E. coli BL21 (DE3) for expression. Transformants were induced with 5 mM IPTG for 4 hours. Cultures were centrifuged, lysed and treated with TALON beads as described above. Bound protein was eluted by applying 1 ml elution buffer to the columns. Elution was confirmed by SDS-PAGE. Following confirmation, eluted samples were dialyzed overnight in dialysis buffer (50 mM sodium phosphate, 300 mM NaCl, 10% glycerol). Protein concentration and quality were assessed by Bradford estimation and SDS-PAGE.
(§2) 96-well polystyrene plates were coated with 10 μM fatty acid in coating buffer (0.05 M sodium carbonate-bicarbonate, pH 9.3) and incubated overnight at 4°C. Wells were washed three times with PBS, followed by addition of blocking buffer (1% Ficoll 400 in PBS). After blocking, wells were washed three times with PBS, and different concentrations of proteins in blocking buffer were added and incubated at room temperature for 2 hours. […] After color development, reaction was stopped with 1N sulfuric acid and read spectrophotometrically at 490 nm. Binding was analyzed in GraphPad Prism.
(§3) All experiments were repeated twice and data of representative experiment have been shown. Kd was calculated by using Total One-Site binding in GraphPad Prism. […]

HilD^N44A = target: T2, HilD^N44A (Salmonella typhimurium, UniProt P0CL08, N44A); test: ELISA binding of fatty acid to HilD N44A
T2 construct: made in house; host or cells: E. coli BL21 (DE3)
T2 sequence (P0CL08 1-309 N44A): T1 sequence (P0CL08 1-309 Q290A) with N44A, A290Q
Description: as §1, §2, §3

HilD^K293A [1] = target: T3, HilD^K293A (Salmonella typhimurium, UniProt P0CL08, K293A); test: ELISA binding of fatty acid to HilD K293A
T3 construct: made in house; host or cells: E. coli BL21 (DE3)
T3 sequence (P0CL08 1-309 K293A): T1 sequence (P0CL08 1-309 Q290A) with A290Q, K293A
Description: as §1, §2, §3

HilD^K293A [2] = target: T3, HilD^K293A; test: EMSA of hilA promoter DNA with HilD K293A; type: biochemical; details: 10 nM hilA promoter DNA, 30 μM fatty acid
Description: These were performed as previously described. Briefly, 10 nM hilA promoter DNA (-286 to +31) was mixed with 150 nM HilD in a binding buffer (100 mM Tris pH 7.5, 10 mM EDTA, 1M KCl, 1 mM DTT, 50% v/v glycerol). Fatty acids or control solvents were added at various concentrations. Binding reaction was performed at room temperature for 1 hour. Dye solution was added to final concentration of 1X and samples were separated on 10% acrylamide gels. DNA was stained using SYBR Safe and visualized in BioRad GelDoc imaging system.

[3] = test system: Salmonella invasion of HEp-2 cells; test: Invasion of HEp-2 cells by gentamicin protection assay; type: cell-based
Description: Invasion was quantified by gentamicin protection assay. HEp-2 cells were seeded into 24-well cell culture plates (~10^5/well) and allowed to attach overnight at 37° C with 5% CO2). Salmonella strains were grown overnight without aeration in LB buffered with 100 mM HEPES, pH 8.0, with antibiotics and fatty acids or control solvent. Overnight cultures were washed with sterile PBS. Bacteria were added to the HEp-2 cell monolayer (MOI 1:10), centrifuged briefly (10 minutes at 200 x g) and incubated for 1 hour at 37°C. Wells were washed three times with sterile PBS followed by addition of media with 200 μg/mL gentamicin and incubated for 1 hour. Cells were then washed three times with sterile PBS and lysed by 0.1% Triton X-100. Intracellular bacteria were enumerated by spreading lysates onto LB agar plates with appropriate selection.

[4] = strain expressing wild type HilD
[5] = plates pre-adsorbed with 10 μM fatty acid
[6] = Salmonella expressing HilD K293A grown overnight with 20 μM fatty acid
[7] = Salmonella expressing HilD N44A grown overnight with 20 μM fatty acid
[8] = Salmonella expressing wild type HilD grown overnight with 20 μM fatty acid

SMILES | repression of sipB expression (sipB::lacZY; strain expressing HilD K43A) | repression of sipB expression (sipB::lacZY; strain expressing HilD K293A) | repression of sipB expression (sipB::lacZY; strain expressing HilD K294A) | repression of sipB expression (sipB::lacZY; strain expressing HilD Q290A) | repression of sipB expression (sipB::lacZY; [4]) | Kd (HilD^Q290A; [5]) [µM] | binding in ELISA (in words) (HilD^N44A) | binding in ELISA (in words) (HilD^K293A [1]) | effect on HilD binding to hilA promoter DNA (HilD^K293A [2]) | inhibition of invasion of HEp-2 cells [3, 6] | inhibition of invasion of HEp-2 cells [3, 7] | inhibition of invasion of HEp-2 cells [3, 8] [fold] | binding in ELISA (in words) (HilD^Q290A) | Kd (HilD^K293A [1]; [5]) [µM] | inhibition of invasion of HEp-2 cells ([3]; Salmonella expressing HilD Q290A grown overnight with 20 μM fatty acid)
CCCCCCCCCCCCC/C=C\C(=O)O [c2-HDA, cis-2-hexadecenoic acid] | Repression by c2-HDA, however, remained unaffected | No significant repression | No significant repression | Repression by c2-HDA, however, remained unaffected | ~11 fold and 10.9 fold | 9.7 | essentially no binding | negligible binding | remained bound to the hilA promoter | invaded HEp-2 cells despite the presence of 20 μM c2-HDA | unaffected | 8 | – | – | –
CCCCCCCCCCCCC/C=C/C(=O)O [t2-HDA, trans-2-hexadecenoic acid] | – | – | – | – | 5.2 fold | – | essentially no binding | – | efficiently reduced the DNA binding capacity | 2 fold | unaffected | 2 | failed to bind | 16.7 | had no effect
